“And” between values parts separate entries of the source, which are not always exact repeats. Equal values may be shown once. Read-outs that look alike come from different tables or passages of the source.
Experiments:
[1] = tested on: chloroquine-sensitive strain 3D7 of P. falciparum; experiment: P. falciparum growth inhibition in culture, strain 3D7; assay type: cell-based, Plasmodium falciparum; settings: for result of the 16 tested inhibitors in words (binding): summary of Table 5
P. falciparum = settings: Table 3 section B, high throughput screen [27, 28], cited from earlier work; for EC50: read-out: ED50 in 3D7
[2] = tested on: chloroquine-resistant strain K1 of P. falciparum; experiment: P. falciparum growth inhibition in culture, strain K1; assay type: cell-based, Plasmodium falciparum
HSV-1 strain F = experiment: HSV-1 infection of Vero cells, virus titer; assay type: cell-based; settings: FIG. 5 bottom right panel; virus not named
[3] = tested on: HIV-1 gp41 HR1 wild-type and mutants; settings: cited from earlier work
KSHV protease = KSHV protease (Human herpesvirus 8 type P, UniProt Q2HRB6); experiment: Surface Plasmon Resonance, KSHV protease; assay type: binding; set-up: herpes simplex virus (HSV) proteases (including HSV2, VZV, EBV, CMV, and KSHV); settings: SPR, FIG. 4
Protocol: (§1) Four inhibitors were evaluated; our top ranking one (TMPyP4) clearly binds to all three proteases as predicted. […] A third inhibitor, GW8510, predicted to bind fails (i.e., a misprediction). […] Our inhibitor prediction is completely consistent with the observed experimental data which is verified further by cell culture studies in FIG. 4 and compared to existing antiherpes drugs.

CMV protease = CMV protease (Human cytomegalovirus, UniProt P16753); experiment: Surface Plasmon Resonance, CMV protease; assay type: binding; set-up: herpes simplex virus (HSV) proteases (including HSV2, VZV, EBV, CMV, and KSHV); settings: SPR, FIG. 4
Protocol: as §1

HSV protease = experiment: Surface Plasmon Resonance, HSV protease; assay type: binding; settings: SPR, FIG. 4
Protocol: as §1

[4] = Table 3 section A, mean of at least two measurements, read-out: ED50 in 3D7
[5] = Table 5, P. falciparum ED50 in 3D7 and K1
[6] = Plasmodium falciparum, K1, Table 3 section A, mean of at least two measurements, read-out: ED50 in K1
[7] = Plasmodium falciparum, K1, Table 5, read-out: ED50 (μM) in K1
[8] = Plasmodium falciparum, 3D7, Table 3 section A, mean of at least two measurements, read-out: ED50 in 3D7
[9] = Plasmodium falciparum, 3D7, Table 5, read-out: ED50 (μM) in 3D7
[10] = Table 3 section A, mean of at least two measurements, read-out: ED50 in K1
[11] = Table 5, read-out: ED50 (μM) in K1
[12] = Table 5, read-out: ED50 (μM) in 3D7

O=CN1CCN(c2ccc(/C=C3\C(=O)Nc4ccccc43)cc2)CC1 [SU4984]
EC50 [1, 4]: > 40 µM | experimentally determined to work [1, 5]: N

COc1cccc2c1C(=O)c1c(O)c3c(c(O)c1C2=O)C[C@@](O)(C(=O)CO)C[C@@H]3O[C@H]1C[C@H](N)[C@@H](O)[C@H](C)O1 [Epirubicin]
% Inhibition at 10 μM in (P. falciparum): 98.4%

COc1ccc(C[C@H](N)C(=O)N[C@H]2[C@@H](O)[C@H](n3cnc4c(N(C)C)ncnc43)O[C@@H]2CO)cc1 [Puromycin]
% Inhibition at 10 μM in (P. falciparum): 98.9%

COc1cccc2c1C(=O)c1c(O)c3c(c(O)c1C2=O)C[C@@](O)(C(C)=O)C[C@@H]3O[C@H]1C[C@H](N)[C@H](O)[C@H](C)O1 [Daunorubicin]
% Inhibition at 10 μM in (P. falciparum): 99.6% | EC50 [2, 6]: < 1 µM | EC50 [2, 7]: < 1 µM | EC50 [1, 8]: 0.13 µM | EC50 [1, 9]: 0.125 µM | experimentally determined to work [1, 5]: Y (Y—yes (<=1uM ED50)) | result of the 16 tested inhibitors in words (binding) [1]: very strong binding

O=C(O)c1cc(/N=N/c2ccc(S(=O)(=O)Nc3ccccn3)cc2)ccc1O [Sulfasalazine]
EC50 [2, 6]: > 40 µM | EC50 [2, 7]: > 40 µM | EC50 [1, 8]: > 40 µM | EC50 [1, 9]: > 40 µM | experimentally determined to work [1, 5]: N

C=CC1=C(C)c2cc3[nH]c(cc4nc(cc5[nH]c(cc1n2)c(C)c5CCC(=O)O)C(CCC(=O)O)=C4C)c(C)c3C=C [Protoporphrin, Protoporphyrin IX]
EC50 [2, 6]: 10 to 40 µM | EC50 [2, 7]: 10 to 40 µM | EC50 [1, 8]: 10 to 40 µM | EC50 [1, 9]: 10 to 40 µM | experimentally determined to work [1, 5]: N

CC[C@]1(O)C[C@@H]2CN(CCc3c([nH]c4ccccc34)[C@@](C(=O)OC)(c3cc4c(cc3OC)N(C)[C@H]3[C@@](O)(C(N)=O)[C@H](O)[C@]5(CC)C=CCN6CC[C@]43[C@@H]65)C2)C1 [Vindesine]
% Inhibition at 10 μM in (P. falciparum): 81.9%

O=C(c1ccc(OCCN2CCCCC2)cc1)c1c(-c2ccc(O)cc2)sc2cc(O)ccc12 [Raloxifene]
% Inhibition at 10 μM in (P. falciparum): 97.1% | EC50 (P. falciparum): < 0.5 µM

CN1C[C@H](CNC(=O)OCc2ccccc2)C[C@@H]2c3cccc4c3c(cn4C)C[C@H]21 [Metergoline]
% Inhibition at 10 μM in (P. falciparum): 85.9% | EC50 (P. falciparum): 5.4 µM

COc1ccc(CCN2CCC(Nc3nc4ccccc4n3Cc3ccc(F)cc3)CC2)cc1 [Astemizole]
% Inhibition at 10 μM in (P. falciparum): 97.6%

CN([C@@H](Cc1ccc(OS(=O)(=O)c2cccc3cnccc23)cc1)C(=O)N1CCN(c2ccccc2)CC1)S(=O)(=O)c1cccc2cnccc12 [KN62]
EC50 [2, 10]: < 1 µM | EC50 [2, 11]: < 1 µM | EC50 [1, 4]: 0.69 µM | experimentally determined to work [1, 5]: Y (Y—yes (<=1uM ED50)) | EC50 [1, 12]: 0.69 µM | result of the 16 tested inhibitors in words (binding) [1]: very strong binding

CN1CCCC1CCn1cc(C2=C(c3c[nH]c4ccccc34)C(=O)NC2=O)c2ccccc21 (centres unmarked) [Bisindolylmaleimide II]
EC50 [2, 10]: 1 to 10 µM | EC50 [2, 11]: 1 to 10 µM | EC50 [1, 4]: 1 to 10 µM | experimentally determined to work [1, 5]: N | EC50 [1, 12]: 1 to 10 µM

Nc1nc2c(ncn2COCCO)c(=O)[nH]1 [acylovir]
effectiveness after passage for several cycles with both acylovir and TMPyP4 (HSV-1 strain F): complete resistance to acylovir occurs

CC1(C)S[C@@H]2[C@H](NC(=O)[C@H](NC(=O)N3CCNC3=O)c3ccccc3)C(=O)N2[C@H]1C(=O)O [Azlocillin]
EC50 (P. falciparum): 1.5 µM

Cc1c(C(=O)c2cccc3ccccc23)c2cccc3c2n1[C@H](CN1CCOCC1)CO3 [R-(+)-WIN55212-2]
EC50 [2, 10]: 10 to 40 µM | EC50 [2, 11]: 10 to 40 µM | experimentally determined to work [1]: N | EC50 [1, 4]: 10 to 40 µM | EC50 [1, 12]: 10 to 40 µM

enfuvirtide
EC50 ([3]; HR1 Wild-type): 0.012 µg/mL | EC50 ([3]; HR1 mutation N42T + N43K): 0.388 µg/mL | EC50 ([3]; HR1 mutation N42T + N43S): 0.727 µg/mL | EC50 ([3]; HR1 mutation N42T): 0.045 µg/mL | EC50 ([3]; HR1 mutation V38A + N42D): 1.685 µg/mL | EC50 ([3]; HR1 mutation V38A + N42T): 1.782 µg/mL | EC50 ([3]; HR1 mutation V38A): 0.188 µg/mL | EC50 ([3]; HR1 mutation V38E + N42S): 6.156 µg/mL

CN1C[C@H](C(=O)N[C@]2(C)O[C@@]3(O)[C@@H]4CCCN4C(=O)[C@H](Cc4ccccc4)N3C2=O)C[C@@H]2c3cccc4[nH]cc(c34)C[C@H]21 [Dihydroergotamine]
% Inhibition at 10 μM in (P. falciparum): 88.1% | EC50 (P. falciparum): 4 µM and 3 µM

Cc1cc(C)c(/C=C2\C(=O)Nc3ccc(Cl)cc32)[nH]1 [SU5614]
experimentally determined to work [1, 5]: N

CN(Cc1cnc2nc(N)nc(N)c2n1)c1ccc(C(=O)N[C@@H](CCC(=O)O)C(=O)O)cc1 [Methotrexate]
% Inhibition at 10 μM in (P. falciparum): 98.4% | EC50 (P. falciparum): 0.05 µM

CC[C@@]1(O)C(=O)OCc2c1cc1n(c2=O)Cc2cc3c(CN(C)C)c(O)ccc3nc2-1 [Topotecan]
% Inhibition at 10 μM in (P. falciparum): 80.1%

Cc1nc2n(c(=O)c1CCN1CCC(c3noc4cc(F)ccc34)CC1)CCCC2 [Risperidone]
% Inhibition at 10 μM in (P. falciparum): 67.5%

CN(C)S(=O)(=O)c1ccc2c(c1)/C(=C/c1cc3c([nH]1)CCCC3)C(=O)N2 [SU6656]
disassociation constant (Kd), KSHV protease (KSHV protease): verified to not bind | EC50 [1, 4]: > 40 µM | experimentally determined to work [1, 5]: N | EC50 [1, 12]: 10 µM | disassociation constant (Kd), CMV protease (CMV protease): verified to not bind | disassociation constant (Kd), HSV protease (HSV protease): verified to not bind

O=C(O)CCC(=O)Nc1ccc(S(=O)(=O)Nc2nccs2)cc1 [Succinylsulfathiazole]
EC50 [2, 6]: > 40 µM | EC50 [2, 7]: > 40 µM | EC50 [1, 8]: > 40 µM | EC50 [1, 9]: > 40 µM | experimentally determined to work [1, 5]: N

Oc1ccc(Cc2nc3c(Cc4ccccc4)nc(-c4ccc(O)cc4)cn3c2O)cc1 [Coelenterazine]
EC50 [2, 6]: 1 to 10 µM | EC50 [2, 7]: 1 to 10 µM | EC50 [1, 8]: 10 to 40 µM | EC50 [1, 9]: 10 to 40 µM | experimentally determined to work [1, 5]: N

O=C1c2ccc3c4ccc5c6c(ccc(c7ccc(c2c37)C(=O)N1CCN1CCCCC1)c64)C(=O)N(CCN1CCCCC1)C5=O [PIPER]
EC50 [2, 10]: 10 to 40 µM | EC50 [2, 11]: 10 to 40 µM | EC50 [1, 4]: 10 to 40 µM | experimentally determined to work [1, 5]: N | EC50 [1, 12]: 10 to 40 µM

Cc1ccc(NC(=O)c2ccc(CN3CCN(C)CC3)cc2)cc1Nc1nccc(-c2cccnc2)n1 [STI-571, Imatinib]
result of the 16 tested inhibitors in words (binding) [1]: moderate binding

Cc1c[nH]c(/C=C2\C(=O)Nc3ccccc32)c1CCC(=O)O [SU5402]
EC50 [1, 4]: > 40 µM | experimentally determined to work [1, 5]: N

Bisindolylmaleimide VII
EC50 [2, 10]: 1 to 10 µM | EC50 [2, 11]: 1 to 10 µM | EC50 [1, 4]: 1 to 10 µM | experimentally determined to work [1, 5]: N | EC50 [1, 12]: 1 to 10 µM

C[C@]12C=CC(=O)C=C1CC[C@@H]1C2=CC[C@]2(C)[C@@H](C(=O)CN3CCN(c4cc(N5CCCC5)nc(N5CCCC5)n4)CC3)CC[C@@H]12.O=C(O)/C=C\C(=O)O [U-74389G]
EC50 [2, 10]: < 1 µM | EC50 [2, 11]: < 1 µM | EC50 [1, 4]: 0.83 µM | experimentally determined to work [1, 5]: Y (Y—yes (<=1uM ED50)) | EC50 [1, 12]: 0.825 µM | result of the 16 tested inhibitors in words (binding) [1]: very strong binding

Cl.Cn1cc(C2=C(c3c4n(c5ccccc35)CCC(CN)C4)C(=O)NC2=O)c2ccccc21 (centres unmarked) [Bisindolylmaleimide X]
EC50 [2, 10]: 1 to 10 µM | EC50 [2, 11]: 1 to 10 µM | EC50 [1, 4]: 1 to 10 µM | experimentally determined to work [1, 5]: N | EC50 [1, 12]: 1 to 10 µM

CC[C@H](CO)Nc1nc(NCc2ccccc2)c2ncn(C(C)C)c2n1 [Roscovitine]
experimentally determined to work [1, 5]: N
